In patent US20240269317A1, “TARGETED ENCAPSULATION STRATEGIES FOR TREATMENT MODALITIES” (NUTARIA LTD., priority 2021, published 2024):

Assays:
[1] = target: T1, PPARγ (Homo sapiens, UniProt P37231); conditions: classified by ability to inhibit rosiglitazone-induced cellular responses; cited from earlier work
T1 sequence (P37231 1-505): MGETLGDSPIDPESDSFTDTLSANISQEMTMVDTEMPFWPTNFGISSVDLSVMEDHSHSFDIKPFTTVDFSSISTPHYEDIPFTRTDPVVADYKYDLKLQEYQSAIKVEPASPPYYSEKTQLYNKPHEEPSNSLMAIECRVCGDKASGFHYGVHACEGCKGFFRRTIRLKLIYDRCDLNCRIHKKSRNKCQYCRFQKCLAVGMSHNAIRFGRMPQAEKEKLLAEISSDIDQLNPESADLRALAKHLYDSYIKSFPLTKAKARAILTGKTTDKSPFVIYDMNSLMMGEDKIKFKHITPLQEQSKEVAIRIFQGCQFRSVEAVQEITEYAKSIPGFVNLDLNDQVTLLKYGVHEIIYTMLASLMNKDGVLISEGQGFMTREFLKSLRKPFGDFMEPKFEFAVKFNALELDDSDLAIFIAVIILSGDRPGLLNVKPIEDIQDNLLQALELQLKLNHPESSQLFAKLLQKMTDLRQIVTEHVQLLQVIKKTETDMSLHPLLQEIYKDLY

[2] = tested on: nuclear transcription factor κB (NF-κB) activation; conditions: cited from earlier work; for activation of IRAK-1, IKK-β, NF-κB, and MAP kinases (ERK, JNK, and p-38): LPS-stimulated murine peritoneal macrophages; for NF-κB activation: lipopolysaccharide (LPS)-stimulated murine peritoneal macrophages
[3] = tested on: Human Neuroblastoma cells (SH Sy5Y cells cell line); test: in-vitro curcumin delivery experiment (curcumin fluorescence); format: cell-based; conditions: after 3.5 hours of treatment, relative to the 1 hour time point
Source text: FIGS. 5a-b depict different time points of the same experiment. […] This effect might be due to intra-cellular metabolism of the curcumin present in the SLN 10+Caffeine 13 sample.

[4] = target: T2, cyclooxygenase-2 (COX-2) (Homo sapiens, UniProt P35354); conditions: cited from earlier work
T2 sequence (P35354 18-604): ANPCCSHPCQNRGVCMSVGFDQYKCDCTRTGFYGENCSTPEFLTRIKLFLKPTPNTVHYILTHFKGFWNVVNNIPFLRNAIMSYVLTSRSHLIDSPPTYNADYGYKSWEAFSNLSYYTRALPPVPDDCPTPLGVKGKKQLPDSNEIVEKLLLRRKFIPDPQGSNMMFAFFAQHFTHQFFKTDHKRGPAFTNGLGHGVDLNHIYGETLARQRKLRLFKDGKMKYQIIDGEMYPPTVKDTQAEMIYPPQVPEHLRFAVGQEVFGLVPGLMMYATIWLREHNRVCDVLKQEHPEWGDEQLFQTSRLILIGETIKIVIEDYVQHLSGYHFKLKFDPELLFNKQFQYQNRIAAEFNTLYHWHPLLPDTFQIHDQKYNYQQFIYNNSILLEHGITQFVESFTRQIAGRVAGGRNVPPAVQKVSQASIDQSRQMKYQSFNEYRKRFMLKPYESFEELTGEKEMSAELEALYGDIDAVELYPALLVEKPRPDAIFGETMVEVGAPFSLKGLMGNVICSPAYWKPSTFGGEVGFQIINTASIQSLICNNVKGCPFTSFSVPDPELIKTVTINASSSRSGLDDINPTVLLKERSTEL

In the case of `O=c1cc(-c2ccc(O)cc2)oc2cc(O)cc(O)c12` [apigenin], the “PPARγ activity (agonist, antagonist or modulator)” value (from here on “PPARγ activity”) [1] is given as “modulators”.
In the case of `COc1ccc(-c2coc3cc(O)cc(O)c3c2=O)cc1` [biochanin A], the “PPARγ activity” value [1] is listed as “agonist”.
In the case of `CC(C)=CCC[C@](C)(O[C@@H]1O[C@H](CO)[C@@H](O)[C@H](O)[C@H]1O)[C@H]1CC[C@]2(C)[C@@H]1[C@H](O)C[C@@H]1[C@@]3(C)CC[C@H](O)C(C)(C)[C@@H]3CC[C@]12C` [compound K], the “activation of IRAK-1, IKK-β, NF-κB, and MAP kinases (ERK, JNK, and p-38)” value [2] is listed as “significantly inhibited” and the NF-κB activation [2] is listed as “inhibited”.
In the case of `COc1cc(/C=C/C(=O)CC(=O)/C=C/c2ccc(O)c(OC)c2)ccc1O` [curcumin], the curcumin fluorescence [3] is reported as “remained at the same levels”.
In the case of `COc1ccc(-c2cc(=O)c3c(O)cc(O)cc3o2)cc1O` [diosmetin], the “PPARγ activity” value [1] is listed as “antagonists”.
In the case of `CC(C)=CCC[C@](C)(O[C@@H]1O[C@H](CO[C@@H]2O[C@H](CO)[C@@H](O)[C@H](O)[C@H]2O)[C@@H](O)[C@H](O)[C@H]1O)[C@H]1CC[C@]2(C)[C@@H]1[C@H](O)C[C@@H]1[C@@]3(C)CC[C@H](O[C@@H]4O[C@H](CO)[C@@H](O)[C@H](O)[C@H]4O[C@@H]4O[C@H](CO)[C@@H](O)[C@H](O)[C@H]4O)C(C)(C)[C@@H]3CC[C@]12C` [ginsenoside Rb1], the “activation of IRAK-1, IKK-β, NF-κB, and MAP kinases (ERK, JNK, and p-38)” value [2] is given as “significantly inhibited” and the NF-κB activation [2] is given as “inhibited”.
In the case of `O=c1cc(-c2ccc(O)c(O)c2)oc2cc(O)cc(O)c12` [luteolin], the “PPARγ activity” value [1] is listed as “antagonists”.
For `O=C1C[C@@H](c2ccc(O)cc2)Oc2cc(O)cc(O)c21` [naringenin], the “PPARγ activity” value [1] is listed as “modulators”.
In the case of `O=c1c(O)c(-c2ccc(O)c(O)c2)oc2cc(O)cc(O)c12` [quercetin], the “PPARγ activity” value [1] is given as “antagonists”.
In the case of `O=C(/C=C/c1ccc(O)c(O)c1)O[C@H](Cc1ccc(O)c(O)c1)C(=O)O` [rosmarinic acid], the “PPARγ activity” value [1] is listed as “antagonists”.
For C-phycocyanin, the “IC50 COX-2/IC50 COX-1 ratio” value [4] is given as 0.04.
